The test system of one data set is primary rat adipocytes. In words: Lipogenesis in rat adipocytes. In kind it is cell-based. As to the method:
Lipogenesis in Rat Adipocytes
As a measure of in vitro potency of the insulins of the invention, lipogenesis can be used. Primary rat adipocytes are isolated from the epididymale fat pads and incubated with 3H-glucose in buffer containing e.g. 1% fat free HSA and either standard (human insulin, HI) or insulin of the invention. The labelled glucose is converted into extractable lipids in a concentration dependent way, resulting in full concentration response curves. The result is expressed as relative potency (%) with 95% confidence limits of insulin of the invention compared to standard (HI).

A further data set deals with T1, PCSK9 (Homo sapiens, UniProt Q8NBP7).
T1 construct: purchased BioSite/BPSBioscience (PCSK9); R & D systems (rhLDL-R) 71304 (PCSK9); 2148-LD (rhLDL-R); host or cells: rhLDL-R: NSO-derived
The experiment in a line: PCSK9-LDL-R binding competitive ELISA. As to conditions: apparent binding affinity.

The test system of another data set is HepG2 cells. In words: LDL uptake assay in HepG2 cells in the presence of PCSK9. In kind it is cell-based, human. As to conditions: PCSK9 10 ug/mL.
Data set [1] addresses T2, human insulin receptor (IR), solubilised human IR-A (Homo sapiens, UniProt P06213).
T2 construct: baby hamster kidney (BHK) cells overexpressing the IR-A holoreceptor; made in house; host or cells: baby hamster kidney (BHK) cells overexpressing IR-A; detergent-solubilised, WGA semipurified
In words: Insulin receptor affinity on solubilised receptors, competition binding SPA, 0% HSA. As to conditions: Table 3, example numbers, binding affinity relative to human insulin.

Data set [2] addresses T2, human insulin receptor (IR), solubilised human IR-A. The experiment in a line: Insulin receptor affinity SPA, related assay with 1.5% HSA in binding buffer. As to conditions: Table 3, example numbers, binding affinity relative to human insulin.
For data set [3] the following is noted: in vivo.
Where [4] appears, read: Table 3, example numbers, potency relative to human insulin.
Where [5] appears, read: Table 4, labels are comparator compound numbers, relative to human insulin.
Where [6] appears, read: Table 5, example numbers, Ki converted from IC50.
[7] abbreviates: Table 6, labels are comparator compound numbers.

In the case of “EGF(A)(301L, 309R, 312E, 321E)-[GAQP]2-Insulin(B3E, B29K(eicosanedioyl-gGlu-2×OEG), desB30) [Example 6]”, the “Lipogenesis 1% HSA (% rel to HI)” value in the data set on primary rat adipocytes (setting [4]) and in the data set on primary rat adipocytes (setting [5]) was 0.06 % rel to HI each time. Further, the Ki on PCSK9 (setting [6]) is 2.49 nM.
As to “EGF(A)(301L, 309R, 312E, 321E)-[GAQP]2-Insulin(B3E, B29K(hexadecanedioyl-gGlu-2×OEG), desB30) [Example 1]”, the “Lipogenesis 1% HSA (% rel to HI)” value in the data set on primary rat adipocytes (setting [4]) is 0.49 % rel to HI; with primary rat adipocytes (setting [5]) it was 0.14 % rel to HI.
Regarding “EGF(A)(301L, 309R, 312E, 321E)-[GAQP]2-Insulin(B3E, B29K(octadecanedioyl-gGlu-2×OEG), desB30) [Example 3]”, the “Lipogenesis 1% HSA (% rel to HI)” value was 0.16 % rel to HI in the data set on primary rat adipocytes (setting [4]) and 0.06 % rel to HI with primary rat adipocytes (setting [5]).
Turning to “EGF(A)(301L, 309R, 312E, 321E)-[GAQP]2-Insulin(B3E, B29K(octadecanedioyl-gGlu-OEG), desB30) [Example 5]”, in the data set with primary rat adipocytes (setting [5]), the “Lipogenesis 1% HSA (% rel to HI)” value is 0.44 % rel to HI.
For “EGF(A)(301L, 309R, 312E, 321E)-[GAQP]2-Insulin(B29K(eicosanedioyl-gGlu-2×OEG), desB30) [Example 7]”, the “Lipogenesis 1% HSA (% rel to HI)” value in the data set with primary rat adipocytes (setting [5]) is recorded as 0.18 % rel to HI. On PCSK9 (setting [7]), the Ki is 1.74 nM.
Consider “EGF(A)(301L, 309R, 312E, 321E)-[GAQP]2-Insulin(B29K(octadecanedioyl-gGlu-2×OEG), desB30) [Example 4]”, for which the “Lipogenesis 1% HSA (% rel to HI)” value in the data set on primary rat adipocytes (setting [4]) is recorded as 0.13 % rel to HI; in the data set on primary rat adipocytes (setting [5]), 0.07 % rel to HI.
“EGF(A)(301L, 309R, 312E, 321E)-[GAQP]3-Insulin(A14E, B29K(octadecanedioyl-gGlu-2×OEG), desB30) [Example 10]”: the “Lipogenesis 1% HSA (% rel to HI)” value in the data set with primary rat adipocytes (setting [4]) is on record as 0.12 % rel to HI. Also, in the data set on HepG2 cells (setting [7]), the EC50 is 152 nM.
With “EGF(A)(301L, 309R, 312E, 321E)-[GAQP]4-Insulin(A14E, B29K(octadecanedioyl-gGlu-2×OEG), desB30) [Example 11]”, the “Lipogenesis 1% HSA (% rel to HI)” value in the data set with primary rat adipocytes (setting [4]) was 0.12 % rel to HI.
Regarding “EGF(A)(301L, 309R, 312E, 321E)-[GAQP]4-Insulin(B29K(octadecanedioyl-gGlu-2×OEG), desB30) [Example 12]”, in the data set on primary rat adipocytes (setting [4]), the “Lipogenesis 1% HSA (% rel to HI)” value is on record as 0.14 % rel to HI.
Turning to “EGF(A)(301L, 309R, 312E, 321E)-[GAQP]6-Insulin(A14E, B29K(eicosanedioyl-gGlu-2×OEG), desB30 [Example 16]”, the “hIR-A 0% HSA (% rel to HI)” value in data set [1] is on record as 4.77 % rel to HI. For the same substance, in the data set with primary rat adipocytes (setting [4]), the “Lipogenesis 1% HSA (% rel to HI)” value is reported as 0.08 % rel to HI. In addition, in data set [2], the “hIR-A 1.5% HSA (% rel to HI)” value is reported as 0.26 % rel to HI. The Ki on PCSK9 (setting [6]) was found to be 1.75 nM.
Turning to “EGF(A)(301L, 309R, 312E, 321E)-[GAQP]6-Insulin(A14E, B29K(octadecanedioyl-gGlu-2×OEG), desB30) [Example 13]”, the “hIR-A 0% HSA (% rel to HI)” value in data set [1] is given as 5.53 % rel to HI. The “Lipogenesis 1% HSA (% rel to HI)” value with primary rat adipocytes (setting [4]) is listed as 0.11 % rel to HI. Besides, in data set [3], the “Rat iv Mean Residence Time MRT” value is on record as 13.56 h. Moreover, the EC50 in the data set on HepG2 cells (Table 5, example numbers) was found to be 170 nM. For the same substance, the “hIR-A 1.5% HSA (% rel to HI)” value in data set [2] is on record as 0.35 % rel to HI. The Ki at PCSK9 (setting [6]) stood at 1.92 nM.
Regarding “EGF(A)(301L, 309R, 312E, 321E)-[GAQP]6-Insulin(A14E, B29K(octadecanedioyl-gGlu-OEG), desB30) [Example 15]”, the “hIR-A 0% HSA (% rel to HI)” value in data set [1] is given as 5.70 % rel to HI. The “Lipogenesis 1% HSA (% rel to HI)” value in the data set on primary rat adipocytes (setting [4]) is given as 0.08 % rel to HI. Moreover, in data set [2], the “hIR-A 1.5% HSA (% rel to HI)” value is recorded as 0.23 % rel to HI. At PCSK9 (setting [6]), the Ki was 2.07 nM.
In the case of “EGF(A)(301L, 309R, 312E, 321E)-[GAQP]6-Insulin(B29K(octadecanedioyl-gGlu-2×OEG), desB30) [Example 14]”, the “Lipogenesis 1% HSA (% rel to HI)” value in the data set on primary rat adipocytes (setting [4]) was 0.10 % rel to HI.
As to “EGF(A)(301L, 309R, 312E, 321E)-[GAQP]10-Insulin(B29K(octadecanedioyl-gGlu-2×OEG), desB30) [Example 2]”, the “Lipogenesis 1% HSA (% rel to HI)” value with primary rat adipocytes (setting [5]) is 0.06 % rel to HI.
On to “EGF(A)(301L, 309R, 312E, 321E)-[GAQP]12-Insulin(B29K(octadecanedioyl-gGlu-2×OEG), desB30) [Example 18]”, for which the “Lipogenesis 1% HSA (% rel to HI)” value with primary rat adipocytes (setting [4]) was 0.09 % rel to HI.
Still for that read-out and setting: the value for “EGF(A)(301L, 309R, 312E, 321E)-[GAQP]13-Insulin(B29K(octadecanedioyl-gGlu-2×OEG), desB30) [Example 9]” was 0.12 % rel to HI.
With “EGF(A)(301L, 309R, 312E, 321E)-[GAQP]19-Insulin(A14E, B29K(eicosanedioyl-gGlu-2×OEG), desB30) [Example 23]”, the “hIR-A 0% HSA (% rel to HI)” value in data set [1] was 2.89 % rel to HI. In the data set with primary rat adipocytes (setting [4]), the “Lipogenesis 1% HSA (% rel to HI)” value is recorded as 0.02 % rel to HI. Further, the EC50 in the data set on HepG2 cells (Table 5, example numbers) was found to be 126 nM. The “hIR-A 1.5% HSA (% rel to HI)” value in data set [2] is reported as 0.14 % rel to HI.
In the case of “EGF(A)(301L, 309R, 312E, 321E)-[GAQP]19-Insulin(B29K(eicosanedioyl-gGlu-2×OEG), desB30) [Example 22]”, in the data set with primary rat adipocytes (setting [4]), the “Lipogenesis 1% HSA (% rel to HI)” value is reported as 0.06 % rel to HI.
On the same count and under the same terms, under “EGF(A)(301L, 309R, 312E, 321E)-[GAQP]19-Insulin(B29K(octadecanedioyl-gGlu-2×OEG), desB30) [Example 19]” stands 0.09 % rel to HI.
As for “EGF(A)(301L, 309R, 312E, 321E)-[GAQP]119-Insulin(A14E, B29K(octadecanedioyl-gGlu-2×OEG), desB30) [Example 20]”, the “Lipogenesis 1% HSA (% rel to HI)” value with primary rat adipocytes (setting [4]) is reported as 0.03 % rel to HI. Moreover, the EC50 in the data set on HepG2 cells (Table 5, example numbers) was found to be 123 nM.
Regarding “EGF(A)(301L, 309R, 312E, 321E)-[GAQP]119-Insulin(B3E, B29K(eicosanedioyl-gGlu-2×OEG), desB30) [Example 24]”, in the data set on primary rat adipocytes (setting [4]), the “Lipogenesis 1% HSA (% rel to HI)” value is on record as 0.06 % rel to HI.
Still for that read-out and setting: under “EGF(A)(301L, 309R, 312E, 321E)-[GAQP]119-Insulin(B3E, B29K(octadecanedioyl-gGlu-2×OEG), desB30) [Example 21]” stands 0.07 % rel to HI.
As for “EGF(A)(301L, 309R, 312E, 321E)-[GQAP]2-Insulin(B29K(octadecanedioyl-gGlu-2×OEG), desB30) [Example 8]”, the results for the “Lipogenesis 1% HSA (% rel to HI)” value in the data set on primary rat adipocytes (setting [4]) and in the data set on primary rat adipocytes (setting [5]) were 0.14 % rel to HI and 0.30 % rel to HI, respectively.

(Values after US11649269B2, “Bifunctional compounds comprising insulin peptides and EGF(A) peptides” (Novo Nordisk A/S, priority 2018, dated 2023).)
